Test results published in PubChem BioAssay AID248 (DTP/NCI, 2004).
Where “and” joins values, the source holds several entries; their conditions need not be identical. Equal entries are not always repeated. Toxic doses and inconclusive results are not listed. No stated cut-off is given here; in the data, active means T/C of 150% or more; inactive means T/C below 125%.

System: L1210 leukemia ip in BDF1 mice, survival T/C
Experiment: NCI In Vivo Anticancer Drug Screen. Data for tumor model L1210 Leukemia (intraperitoneal) in B6D2F1 (BDF1) mice
Conditions: higher = longer survival
Procedure, shortened: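 Tumor was transplanted into mice, which were then dosed with test compound or vehicle alone. Survival was recorded for each group, and the treated figure was expressed relative to the control figure.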

[1] = endpoint: mean survival time, dose: 50.0 mg/kg/injection, schedule: Q01DX009 (ip), vehicle: saline with Tween-80
[2] = endpoint: mean survival time, dose: 100.0 mg/kg/injection, schedule: Q01DX009 (ip), vehicle: saline with Tween-80
[3] = endpoint: mean survival time, dose: 6.25 mg/kg/injection, schedule: Q01DX009 (ip), vehicle: Klucel (hydroxypropylcellulose) (HPC)
[4] = endpoint: mean survival time, dose: 12.5 mg/kg/injection, schedule: Q01DX009 (ip), vehicle: Klucel (hydroxypropylcellulose) (HPC)
[5] = endpoint: mean survival time, dose: 25.0 mg/kg/injection, schedule: Q01DX009 (ip), vehicle: Klucel (hydroxypropylcellulose) (HPC)
[6] = endpoint: mean survival time, dose: 25.0 mg/kg/injection, schedule: Q04DX003 (ip), vehicle: Klucel (hydroxypropylcellulose) (HPC)
[7] = endpoint: mean survival time, dose: 50.0 mg/kg/injection, schedule: Q04DX003 (ip), vehicle: Klucel (hydroxypropylcellulose) (HPC)
[8] = endpoint: mean survival time, dose: 100.0 mg/kg/injection, schedule: Q01DX009 (ip), vehicle: Klucel (hydroxypropylcellulose) (HPC)
[9] = endpoint: mean survival time, dose: 100.0 mg/kg/injection, schedule: Q04DX003 (ip), vehicle: Klucel (hydroxypropylcellulose) (HPC)
[10] = endpoint: mean survival time, dose: 200.0 mg/kg/injection, schedule: Q04DX003 (ip), vehicle: Klucel (hydroxypropylcellulose) (HPC)
[11] = endpoint: mean survival time, dose: 400.0 mg/kg/injection, schedule: Q04DX003 (ip), vehicle: Klucel (hydroxypropylcellulose) (HPC)
[12] = endpoint: mean survival time, dose: 100.0 mg/kg/injection, schedule: Q01DX009 (ip), vehicle: saline
[13] = endpoint: mean survival time, dose: 12.5 mg/kg/injection, schedule: Q04DX002 (ip), vehicle: Klucel (hydroxypropylcellulose) (HPC)
[14] = endpoint: mean survival time, dose: 12.5 mg/kg/injection, schedule: Q04DX003 (ip), vehicle: Klucel (hydroxypropylcellulose) (HPC)
[15] = endpoint: mean survival time, dose: 200.0 mg/kg/injection, schedule: Q01DX009 (ip), vehicle: Klucel (hydroxypropylcellulose) (HPC)
[16] = endpoint: mean survival time, dose: 25.0 mg/kg/injection, schedule: Q01DX009 (ip), vehicle: saline with Tween-80
[17] = endpoint: mean survival time, dose: 100.0 mg/kg/injection, schedule: Q04DX002 (ip), vehicle: saline with Tween-80
[18] = endpoint: mean survival time, dose: 200.0 mg/kg/injection, schedule: Q04DX002 (ip), vehicle: saline with Tween-80
[19] = endpoint: mean survival time, dose: 100.0 mg/kg/injection, schedule: Q04DX003 (ip), vehicle: saline with Tween-80
[20] = endpoint: mean survival time, dose: 400.0 mg/kg/injection, schedule: Q01DX009 (ip), vehicle: Klucel (hydroxypropylcellulose) (HPC)

Measured: T/C

O=C(O)CNc1cc(S(=O)(=O)O)cc2cc(S(=O)(=O)O)c(N=Nc3cc(S(=O)(=O)O)cc4cc(S(=O)(=O)O)cc(O)c34)c(O)c12
inactive: endpoint: mean survival time, dose: 100.0 mg/kg/injection, schedule: Q01DX001 (ip), vehicle: other 101 % of control | endpoint: mean survival time, dose: 200.0 mg/kg/injection, schedule: Q01DX001 (ip), vehicle: other 104 % of control

O=C(/C=C\C=C\c1ccc2c(c1)OCO2)N1CCCCC1
inactive: [1] 105 % of control | [2] 105 % of control | endpoint: mean survival time, dose: 200.0 mg/kg/injection, schedule: Q01DX009 (ip), vehicle: saline with Tween-80 105 % of control

OC(CCN1CCCC1)(c1ccccc1)C1CCCCC1 (stereo unspecified)
inactive: [3] 104 % of control and 108 % of control | [4] 95 % of control and 97 % of control and 102 % of control | [5] 103 % of control and 105 % of control | [6] 111 % of control | endpoint: mean survival time, dose: 50.0 mg/kg/injection, schedule: Q01DX009 (ip), vehicle: Klucel (hydroxypropylcellulose) (HPC) 100 % of control and 106 % of control (2×) | [7] 101 % of control | [8] 103 % of control and 91 % of control | [9] 92 % of control | endpoint: median survival time, dose: 12.5 mg/kg/injection, schedule: Q01DX009 (ip), vehicle: Klucel (hydroxypropylcellulose) (HPC) 96 % of control | endpoint: median survival time, dose: 25.0 mg/kg/injection, schedule: Q01DX009 (ip), vehicle: Klucel (hydroxypropylcellulose) (HPC) 106 % of control | endpoint: median survival time, dose: 50.0 mg/kg/injection, schedule: Q01DX009 (ip), vehicle: Klucel (hydroxypropylcellulose) (HPC) 103 % of control | endpoint: median survival time, dose: 100.0 mg/kg/injection, schedule: Q01DX009 (ip), vehicle: Klucel (hydroxypropylcellulose) (HPC) 102 % of control

S=C(c1ccccc1)N(c1ccccc1)c1ccc2ccccc2c1
inactive: [9] 98 % of control | [10] 95 % of control | [11] 94 % of control

C[N+](C)(C)CCS(=O)(=O)[O-]
inactive: [12] 90 % of control | endpoint: mean survival time, dose: 200.0 mg/kg/injection, schedule: Q01DX009 (ip), vehicle: saline 95 % of control | endpoint: mean survival time, dose: 400.0 mg/kg/injection, schedule: Q01DX009 (ip), vehicle: saline 95 % of control

CC(C)C(CCN1CCCCC1)(CNC1=NCCN1)c1cccc2ccccc12 (stereo unspecified)
inactive: endpoint: mean survival time, dose: 3.12 mg/kg/injection, schedule: Q04DX002 (ip), vehicle: Klucel (hydroxypropylcellulose) (HPC) 103 % of control | endpoint: mean survival time, dose: 5.0 mg/kg/injection, schedule: Q01DX009 (ip), vehicle: Klucel (hydroxypropylcellulose) (HPC) 99 % of control | endpoint: mean survival time, dose: 6.25 mg/kg/injection, schedule: Q04DX002 (ip), vehicle: Klucel (hydroxypropylcellulose) (HPC) 100 % of control | endpoint: mean survival time, dose: 10.0 mg/kg/injection, schedule: Q01DX009 (ip), vehicle: Klucel (hydroxypropylcellulose) (HPC) 102 % of control | [13] 103 % of control | [14] 92 % of control | endpoint: mean survival time, dose: 20.0 mg/kg/injection, schedule: Q01DX009 (ip), vehicle: Klucel (hydroxypropylcellulose) (HPC) 89 % of control | [6] 97 % of control | [7] 90 % of control

OC(c1ccccc1)C1C2C=CC(C2)C1C(O)c1ccccc1 (stereo unspecified)
inactive: [8] 101 % of control | [15] 86 % of control | endpoint: mean survival time, dose: 300.0 mg/kg/injection, schedule: Q01DX009 (ip), vehicle: Klucel (hydroxypropylcellulose) (HPC) 95 % of control

C=C(C)COB(OCC(=C)C)OCC(=C)C
inactive: [16] 100 % of control | [1] 105 % of control | [2] 94 % of control

CCCCC(=O)N1CCCCCC1
inactive: [17] 105 % of control | [18] 87 % of control

Cc1ncc(CCl)n1Cc1ccccc1
inactive: endpoint: mean survival time, dose: 6.25 mg/kg/injection, schedule: Q04DX002 (ip), vehicle: saline 95 % of control and 87 % of control | [13] 110 % of control | endpoint: mean survival time, dose: 12.5 mg/kg/injection, schedule: Q04DX002 (ip), vehicle: saline 114 % of control and 90 % of control | endpoint: mean survival time, dose: 25.0 mg/kg/injection, schedule: Q01DX009 (ip), vehicle: saline 94 % of control and 104 % of control | endpoint: mean survival time, dose: 25.0 mg/kg/injection, schedule: Q04DX002 (ip), vehicle: Klucel (hydroxypropylcellulose) (HPC) 95 % of control | endpoint: mean survival time, dose: 50.0 mg/kg/injection, schedule: Q01DX001 (ip), vehicle: saline 96 % of control | endpoint: mean survival time, dose: 50.0 mg/kg/injection, schedule: Q01DX009 (ip), vehicle: saline 93 % of control and 119 % of control | endpoint: mean survival time, dose: 50.0 mg/kg/injection, schedule: Q04DX002 (ip), vehicle: Klucel (hydroxypropylcellulose) (HPC) 100 % of control | endpoint: mean survival time, dose: 100.0 mg/kg/injection, schedule: Q01DX001 (ip), vehicle: saline 97 % of control | [12] 89 % of control and 90 % of control | endpoint: mean survival time, dose: 100.0 mg/kg/injection, schedule: Q04DX003 (ip), vehicle: saline 90 % of control | endpoint: mean survival time, dose: 200.0 mg/kg/injection, schedule: Q04DX003 (ip), vehicle: saline 93 % of control

N#CC(C#N)=Cc1ccsc1
inactive: [3] 102 % of control | [4] 94 % of control | [14] 102 % of control | [5] 100 % of control | [6] 96 % of control

CSc1ccc(NC(=O)CCl)cc1
inactive: [16] 97 % of control | endpoint: mean survival time, dose: 25.0 mg/kg/injection, schedule: Q04DX003 (ip), vehicle: saline with Tween-80 97 % of control | [1] 108 % of control | endpoint: mean survival time, dose: 50.0 mg/kg/injection, schedule: Q04DX003 (ip), vehicle: saline with Tween-80 95 % of control | [2] 100 % of control | [19] 101 % of control

CN(N=O)C(=O)NC1CCOCC1
active: endpoint: mean survival time, dose: 500.0 mg/kg/injection, schedule: Q01DX001 (ip), vehicle: saline 159 % of control | endpoint: mean survival time, dose: 750.0 mg/kg/injection, schedule: Q01DX001 (ip), vehicle: saline 187 % of control
inactive: endpoint: mean survival time, dose: 10.0 mg/kg/injection, schedule: Q01DX001 (ip), vehicle: saline 102 % of control | endpoint: mean survival time, dose: 20.0 mg/kg/injection, schedule: Q01DX001 (ip), vehicle: saline 103 % of control | endpoint: mean survival time, dose: 40.0 mg/kg/injection, schedule: Q01DX001 (ip), vehicle: saline 104 % of control | endpoint: mean survival time, dose: 60.0 mg/kg/injection, schedule: Q01DX001 (ip), vehicle: saline 109 % of control | endpoint: mean survival time, dose: 90.0 mg/kg/injection, schedule: Q01DX001 (ip), vehicle: saline 102 % of control | endpoint: mean survival time, dose: 187.0 mg/kg/injection, schedule: Q01DX001 (ip), vehicle: saline 119 % of control | endpoint: mean survival time, dose: 250.0 mg/kg/injection, schedule: Q01DX001 (ip), vehicle: saline 112 % of control

O=C(Nc1ccccc1F)OCCOc1ccc([N+](=O)[O-])cc1
inactive: [8] 96 % of control | [15] 100 % of control | [20] 94 % of control

OC1CC2(c3ccccc3)OC1(c1ccccc1)c1ccccc12 (stereo unspecified)
inactive: endpoint: mean survival time, dose: 100.0 mg/kg/injection, schedule: Q04DX002 (ip), vehicle: Klucel (hydroxypropylcellulose) (HPC) 112 % of control | endpoint: mean survival time, dose: 200.0 mg/kg/injection, schedule: Q04DX002 (ip), vehicle: Klucel (hydroxypropylcellulose) (HPC) 101 % of control | endpoint: mean survival time, dose: 400.0 mg/kg/injection, schedule: Q04DX002 (ip), vehicle: Klucel (hydroxypropylcellulose) (HPC) 115 % of control

CC(C)C(CN)(CCCCN1CCOCC1)c1cccc2ccccc12 (stereo unspecified)
inactive: [19] 100 % of control | endpoint: mean survival time, dose: 200.0 mg/kg/injection, schedule: Q04DX003 (ip), vehicle: saline with Tween-80 95 % of control | endpoint: mean survival time, dose: 400.0 mg/kg/injection, schedule: Q04DX003 (ip), vehicle: saline with Tween-80 95 % of control

COC(OC)(/C(Cl)=C(\Cl)c1ccccc1)c1ccccc1
inactive: [17] 94 % of control | [18] 88 % of control

Nc1cccc(C(O)c2ccccc2)c1 (stereo unspecified)
inactive: [9] 90 % of control | [10] 92 % of control | [11] 95 % of control

CNS(=O)(=O)c1cc(C)ccc1C
inactive: [8] 94 % of control | [15] 95 % of control | [20] 100 % of control

CC(=O)[O][Hg][c]1c(N)c(Cl)cc(C)c1F
inactive: endpoint: mean survival time, dose: 10.0 mg/kg/injection, schedule: Q01DX001 (ip), vehicle: Klucel (hydroxypropylcellulose) (HPC) 101 % of control | endpoint: mean survival time, dose: 20.0 mg/kg/injection, schedule: Q01DX001 (ip), vehicle: Klucel (hydroxypropylcellulose) (HPC) 86 % of control
